The text below walks through data of patent US7652047B2, “Phenylamino isothiazole carboxamidines as MEK inhibitors” (Ardea Biosciences, Inc., priority 2005, dated 2010).

Bounds are passed on as bounds.

This test deals with T1, MEK1^CA (human GST-MEK1, constitutively active, Ser218Asp and Ser222Asp) (Homo sapiens, UniProt Q02750, S218D/S222D).
T1 construct: GST; made in house; host or cells: Escherichia coli
Briefly: MEK1 enzymatic activity assay (MEK1^CA / ERK2 / MBP, [γ-33P]ATP incorporation). The format is biochemical. The conditions noted are these: Table 1, compounds of formula I; read-out: Avg IC50. In outline: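 Cascade assay: 25 µl reactions with 0.002 nmol E. coli-expressed GST-MEK1 S218D/S222D, 0.02 nmol His-tagged mouse ERK2, 0.25 nmol MBP, 0.25 nmol unlabeled ATP and 0.1 µCi [γ-33P]ATP. Compound preincubated 30 min at ambient temperature with MEK1/ERK2; stopped with TCA, 33P-labelled protein filter-captured and scintillation-counted.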

T1 sequence (Q02750 whole entry S218D/S222D): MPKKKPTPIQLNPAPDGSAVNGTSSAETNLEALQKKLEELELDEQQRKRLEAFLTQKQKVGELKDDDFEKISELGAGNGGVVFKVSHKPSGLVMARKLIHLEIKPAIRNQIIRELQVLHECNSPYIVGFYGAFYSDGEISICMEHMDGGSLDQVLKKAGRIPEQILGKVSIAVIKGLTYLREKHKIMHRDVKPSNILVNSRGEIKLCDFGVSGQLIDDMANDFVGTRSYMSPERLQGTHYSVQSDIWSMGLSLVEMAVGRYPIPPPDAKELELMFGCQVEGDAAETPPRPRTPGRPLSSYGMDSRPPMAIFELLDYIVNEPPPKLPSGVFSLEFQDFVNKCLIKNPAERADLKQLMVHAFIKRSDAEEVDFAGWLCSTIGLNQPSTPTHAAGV

For `CC(CO)NC(=N)c1c(O)nsc1Nc1ccc(Oc2ccc(C(F)(F)F)cc2)c(F)c1` (stereo not shown) [compound 378], the half-inhibitory concentration (IC50) lay within 100 to 500 nM.

Take `Cc1cc(Nc2snc(O)c2C(=N)NC(C)C)ccc1Oc1cc(F)ccc1Cl` [compound 380]: the IC50 was in the range of 100 to 500 nM.

With `CC(C)NC(=N)c1c(O)nsc1Nc1ccc(Oc2cc(F)ccc2Cl)c(Cl)c1` [compound 382], the IC50 was 1 to 100 nM.

For the compound `CC(C)NC(=N)c1c(O)nsc1Nc1ccc(Oc2cccc(Cl)c2Cl)c(Cl)c1` [compound 383], the IC50 was 1 to 100 nM.

For `CC(C)NC(=N)c1c(O)nsc1Nc1ccc(Oc2cc(C(F)(F)F)ccc2Cl)cc1F` [compound 384], the IC50 fell in the range of 100 to 500 nM.

As for `CC(CO)N=C(N)c1c(O)nsc1Nc1ccc(Oc2cc(C(F)(F)F)ccc2I)cc1` (stereo not shown) [compound 385], the concentration for half-maximal inhibition (IC50) fell in the range of 1 to 100 nM.

For `Cc1cc(Nc2snc(O)c2C(=N)NC(C)CO)ccc1Oc1ccc(C(F)(F)F)cc1` (stereo not shown) [compound 386], the IC50 was above 500 nM.

`CC(C)NC(=N)c1c(O)nsc1Nc1ccc(Oc2ccc(F)cc2)c(Cl)c1` [compound 387]: the concentration for half-maximal inhibition (IC50) is 100 to 500 nM.

For `CC(C)NC(=N)c1c(O)nsc1Nc1ccc(Oc2ccc(C(F)(F)F)cc2)c(Cl)c1` [compound 388], the IC50 lay in the range of 100 to 500 nM.

On to `Cc1cc(Nc2snc(O)c2C(=N)NC(C)C)ccc1Oc1ccc(C(F)(F)F)cc1` [compound 389], for which the 50% inhibitory concentration (IC50) was above 500 nM.

As to `CC(C)NC(=N)c1c(O)nsc1Nc1ccc(Oc2ccc(C(F)(F)F)cc2)c(F)c1` [compound 390], the IC50 lay within 100 to 500 nM.

As for `CC(C)NC(=N)c1c(O)nsc1Nc1ccc(Oc2ccc(C(F)(F)F)cc2)cc1` [compound 391], the IC50 is 100 to 500 nM.

Turning to `CC(CO)NC(=N)c1c(O)nsc1Nc1ccc(Oc2ccc(F)cc2)c(Cl)c1` (stereo not shown) [compound 392], the IC50 is 100 to 500 nM.

On to `CC(CO)NC(=N)c1c(O)nsc1Nc1ccc(Oc2ccc(F)cc2)c(F)c1` (stereo not shown) [compound 393], for which the IC50 fell in the range of 1 to 100 nM.

As for `CC(CO)NC(=N)c1c(O)nsc1Nc1ccc(Oc2cc(C(F)(F)F)ccc2Cl)cc1F` (stereo not shown) [compound 394], the IC50 is 1 to 100 nM.

Turning to `CC(C)NC(=N)c1c(O)nsc1Nc1ccc(Oc2ccc(F)cc2)c(F)c1` [compound 395], the IC50 lay in the range of 100 to 500 nM.

With `CC(CO)NC(=N)c1c(O)nsc1Nc1ccc(Oc2ccc(C(F)(F)F)cc2)c(Cl)c1` (stereo not shown) [compound 396], the IC50 lay within 100 to 500 nM.

Regarding `Cc1cc(Nc2snc(O)c2C(=N)NC(C)C)ccc1Oc1ccc(F)cc1` [compound 397], the IC50 is above 500 nM.

With `CC(C)NC(=N)c1c(O)nsc1Nc1ccc(Oc2ccc(F)cc2F)c(F)c1` [compound 398], the IC50 was in the range of 100 to 500 nM.

Take `Cc1cc(Oc2ccc(F)cc2Cl)ccc1Nc1snc(O)c1C(=N)NC(C)C` [compound 401]: the IC50 fell in the range of 1 to 100 nM.

In the case of `Cc1cc(Oc2ccc(Cl)cc2F)ccc1Nc1snc(O)c1C(=N)NC(C)C` [compound 402], the IC50 fell in the range of 1 to 100 nM.

Turning to `CC(C)NC(=N)c1c(O)nsc1Nc1ccc(Oc2ccc(F)cc2Cl)cc1C(F)(F)F` [compound 407], the IC50 is 1 to 100 nM.

`CC(CO)NC(=N)c1c(O)nsc1Nc1ccc(Oc2ccc(F)cc2Cl)cc1C(F)(F)F` (stereo not shown) [compound 408]: the IC50 was in the range of 1 to 100 nM.

For `CCOC(=O)c1cccc(Oc2ccc(Nc3snc(O)c3C(=N)NC(C)C)cc2)c1` [compound 410], the half-maximal inhibitory concentration (IC50) was in the range of 1 to 100 nM.

Take `N=C(NCCO)c1c(O)nsc1Nc1ccc(Oc2cc(F)cc(F)c2)cc1` [compound 411]: the IC50 is 100 to 500 nM.

In the case of `N=C(NCCN1CCNCC1)c1c(O)nsc1Nc1ccc(Oc2cc(F)cc(F)c2)cc1` [compound 412], the IC50 fell in the range of 1 to 100 nM.

On to `N=C(NCCN1CCOCC1)c1c(O)nsc1Nc1ccc(Oc2cc(F)cc(F)c2)cc1` [compound 413], for which the 50% inhibitory concentration (IC50) is 100 to 500 nM.

In the case of `N=C(NCC1CCCO1)c1c(O)nsc1Nc1ccc(Oc2cc(F)cc(F)c2)cc1` (stereo not shown) [compound 414], the IC50 lay in the range of 1 to 100 nM.

In the case of `N=C(NCc1ccccn1)c1c(O)nsc1Nc1ccc(Oc2cc(F)cc(F)c2)cc1` [compound 415], the IC50 lay in the range of 1 to 100 nM.

Turning to `N=C(NC1CC1)c1c(O)nsc1Nc1ccc(Oc2cc(F)cc(F)c2)cc1` [compound 416], the IC50 fell in the range of 100 to 500 nM.

With `N=C(c1c(O)nsc1Nc1ccc(Oc2cc(F)cc(F)c2)cc1)N1CCCCC1` [compound 417], the IC50 was above 500 nM.

`CN(C)CCNC(=N)c1c(O)nsc1Nc1ccc(Oc2cc(F)cc(F)c2)cc1` [compound 418]: the 50% inhibitory concentration (IC50) lay in the range of 100 to 500 nM.

Consider `CN1CCN(C(=N)c2c(O)nsc2Nc2ccc(Oc3cc(F)cc(F)c3)cc2)CC1` [compound 419], for which the 50% inhibitory concentration (IC50) is above 500 nM.

Turning to `N=C(c1c(O)nsc1Nc1ccc(Oc2cc(F)cc(F)c2)cc1)N1CCOCC1` [compound 420], the IC50 was above 500 nM.

With `CC(C)N(O)C(=N)c1c(O)nsc1Nc1ccc(Oc2cc(F)cc(F)c2)cc1` [compound 421], the IC50 is 1 to 100 nM.

As to `CC(O)CNC(=N)c1c(O)nsc1Nc1ccc(Oc2cc(F)cc(F)c2)cc1` (stereo not shown) [compound 422], the concentration for half-maximal inhibition (IC50) was 1 to 100 nM.

As for `N=C(NCC1CCCCC1)c1c(O)nsc1Nc1ccc(Oc2cc(F)cc(F)c2)cc1` [compound 423], the IC50 fell in the range of 1 to 100 nM.

`N=C(NCc1ccccc1)c1c(O)nsc1Nc1ccc(Oc2cc(F)cc(F)c2)cc1` [compound 424]: the concentration for half-maximal inhibition (IC50) was 1 to 100 nM.

`CN(C)CCNC(=N)c1c(O)nsc1Nc1ccc(Oc2ccc(Cl)cc2Cl)cc1` [compound 425]: the IC50 was 100 to 500 nM.

For `N=C(NCCN1CCOCC1)c1c(O)nsc1Nc1ccc(Oc2ccc(Cl)cc2Cl)cc1` [compound 426], the IC50 is 1 to 100 nM.

With `N=C(c1c(O)nsc1Nc1ccc(Oc2ccc(Cl)cc2Cl)cc1)N1CCCCC1` [compound 427], the IC50 is above 500 nM.

Turning to `N=C(NCCN1CCNCC1)c1c(O)nsc1Nc1ccc(Oc2ccc(Cl)cc2Cl)cc1` [compound 428], the IC50 was in the range of 100 to 500 nM.

Consider `CC(C)NC(=N)c1c(O)nsc1Nc1ccc(Oc2cccc(F)c2F)nc1` [compound 429], for which the IC50 was 100 to 500 nM.

As to `CC(C)NC(=N)c1c(O)nsc1Nc1ccc(Oc2cccc(C(F)(F)F)c2)nc1` [compound 430], the concentration for half-maximal inhibition (IC50) lay in the range of 100 to 500 nM.

As to `CC(C)NC(=N)c1c(O)nsc1Nc1ccc(Oc2cc(Cl)ccc2Cl)nc1` [compound 431], the IC50 fell in the range of 1 to 100 nM.

Consider `CC(CO)NC(=N)c1c(O)nsc1Nc1ccc(Oc2cccc(F)c2F)nc1` (stereo not shown) [compound 432], for which the IC50 lay within 100 to 500 nM.

As to `CC(CO)NC(=N)c1c(O)nsc1Nc1ccc(Oc2cccc(C(F)(F)F)c2)nc1` (stereo not shown) [compound 433], the IC50 was in the range of 1 to 100 nM.

For `CC(CO)NC(=N)c1c(O)nsc1Nc1ccc(Oc2cc(Cl)ccc2Cl)nc1` (stereo not shown) [compound 434], the half-inhibitory concentration (IC50) is 1 to 100 nM.

For `N=C(NN1CCCCC1)c1c(O)nsc1Nc1ccc(Oc2cc(F)cc(F)c2)cc1` [compound 435], the 50% inhibitory concentration (IC50) lay in the range of 1 to 100 nM.

As for `N=C(NN1CCOCC1)c1c(O)nsc1Nc1ccc(Oc2cc(F)cc(F)c2)cc1` [compound 436], the IC50 lay within 100 to 500 nM.

Consider `Cc1cc(Oc2cccc(C(F)(F)F)c2)ccc1Nc1snc(O)c1C(=N)NC(C)C` [compound 437], for which the IC50 lay in the range of 1 to 100 nM.

For `Cc1cc(Oc2cccc(C(F)(F)F)c2)ccc1Nc1snc(O)c1C(=N)NC(C)CO` (stereo not shown) [compound 438], the half-maximal inhibitory concentration (IC50) lay within 1 to 100 nM.

Take `CC(CO)NC(=N)c1c(O)nsc1Nc1ccccc1Oc1ccccc1` (stereo not shown) [compound 439]: the 50% inhibitory concentration (IC50) is above 500 nM.

For the compound `N=C(NCC1CCCCC1)c1c(O)nsc1Nc1ccc(Oc2cc(Cl)ccc2Cl)cc1` [compound 441], the 50% inhibitory concentration (IC50) fell in the range of 1 to 100 nM.

On to `CN(C)CCNC(=N)c1c(O)nsc1Nc1ccc(Oc2cc(Cl)ccc2Cl)cc1` [compound 443], for which the IC50 is 1 to 100 nM.

Consider `N=C(NCc1ccccn1)c1c(O)nsc1Nc1ccc(Oc2cc(Cl)ccc2Cl)cc1` [compound 448], for which the IC50 was 1 to 100 nM.

Take `N=C(NN1CCCCC1)c1c(O)nsc1Nc1ccc(Oc2cc(Cl)ccc2Cl)cc1` [compound 449]: the IC50 was in the range of 1 to 100 nM.

As to `N=C(NO)c1c(O)nsc1Nc1ccc(Oc2cc(Cl)ccc2Cl)cc1` [compound 450], the IC50 was in the range of 1 to 100 nM.

In the case of `N=C(NCc1ccccc1)c1c(O)nsc1Nc1ccc(Oc2cc(Cl)ccc2Cl)cc1` [compound 454], the concentration for half-maximal inhibition (IC50) was in the range of 1 to 100 nM.

On to `CC(C)N(O)C(=N)c1c(O)nsc1Nc1ccc(Oc2cc(Cl)ccc2Cl)cc1` [compound 455], for which the IC50 was 1 to 100 nM.

On to `CC(C)NC(=N)c1c(O)nsc1Nc1ccccc1Oc1ccccc1` [compound 456], for which the concentration for half-maximal inhibition (IC50) lay within 100 to 500 nM.

With `Cc1cc(Oc2cc(F)cc(F)c2)ccc1Nc1snc(O)c1C(=N)NC(C)C` [compound 457], the IC50 fell in the range of 1 to 100 nM.

As for `Cc1cc(Oc2cc(F)cc(F)c2)ccc1Nc1snc(O)c1C(=N)NC(C)CO` (stereo not shown) [compound 458], the IC50 is 1 to 100 nM.

As to `Cc1cc(Oc2ccc(F)c(F)c2)ccc1Nc1snc(O)c1C(=N)NC(C)C` [compound 459], the IC50 lay in the range of 1 to 100 nM.

For the compound `Cc1cc(Oc2cc(Cl)ccc2Cl)ccc1Nc1snc(O)c1C(=N)NC(C)C` [compound 460], the half-inhibitory concentration (IC50) was in the range of 1 to 100 nM.

`Cc1cc(Oc2cc(Cl)ccc2Cl)ccc1Nc1snc(O)c1C(=N)NC(C)CO` (stereo not shown) [compound 461]: the IC50 was 1 to 100 nM.

For the compound `Cc1cc(Oc2ccc(F)cc2Cl)ccc1Nc1snc(O)c1C(=N)N(O)C(C)C` [compound 462], the IC50 is 100 to 500 nM.

As to `Cc1cc(Oc2ccc(F)cc2Cl)ccc1Nc1snc(O)c1C(=N)N(O)Cc1ccccc1` [compound 463], the IC50 was 1 to 100 nM.

For the compound `Cc1cc(Oc2cccc(F)c2F)ccc1Nc1snc(O)c1C(=N)NC(C)CO` (stereo not shown) [compound 464], the IC50 fell in the range of 1 to 100 nM.

With `Cc1cc(Oc2cc(F)cc(F)c2)ccc1Nc1snc(O)c1C(=N)NO` [compound 465], the IC50 was in the range of 100 to 500 nM.

For the compound `Cc1cc(Oc2cc(F)cc(F)c2)ccc1Nc1snc(O)c1C(=N)NCC(O)CO` (stereo not shown) [compound 466], the IC50 lay within 1 to 100 nM.

Take `COCC(C)NC(=N)c1c(O)nsc1Nc1ccc(Oc2cc(F)cc(F)c2)cc1C` (stereo not shown) [compound 467]: the IC50 lay within 1 to 100 nM.

`CCC(CO)NC(=N)c1c(O)nsc1Nc1ccc(Oc2cc(F)cc(F)c2)cc1C` (stereo not shown) [compound 468]: the IC50 lay within 1 to 100 nM.
